In paper PMC9182086, “Identification of New Non-BBB Permeable Tryptophan Hydroxylase Inhibitors for Treating Obesity and Fatty Liver Disease” (Molecules, 2022):

Assays:
[1] = Liver microsomal stability (rat); type: in vitro ADME
Experimental: (§1) For the liver microsomal activity, test compounds were incubated with rat and mouse’s liver microsomes, respectively, at a final concentration of 1 µM, in the presence of an NADPH regeneration system in 0.1 M potassium phosphate buffer (pH 7.4) for […] at 37 °C in shaking incubator. The microsomal reaction was terminated by adding four volumes of ice-cold acetonitrile and then centrifuged at 4000 rpm for 20 min. The supernatant was collected and analyzed by a LC-MS/MS system. The percentage of the parent compound remaining was calculated by comparing peak areas.

[2] = Liver microsomal stability (human); type: in vitro ADME; details: after 30 min incubation, 1 µM
Experimental: as §1

[3] = Pharmacokinetic study in rats (iv and oral); type: in vivo, male SD rats; details: SD, rat, plasma, 5 mg/kg
Experimental: The pharmacokinetic study of 18i was performed using eight-week-old male SD rats (Orient Bio Inc., Seongnam, Korea). 18i and its prodrug 21 (5 mg/kg, 2 mL/kg) were administered via intravenous and oral routes. Blood samples were collected at 0.033, 0.16, 0.5, 1, 2, 4, 6, 8, and 24 h for intravenous injection at 0.15, 0.5, 1, 2, 4, 6, 8, and 24 h for oral dosing after drug administration, and then immediately centrifuged at 10,000× g for 3 min. The plasma concentrations of 18i were determined by LC-MS/MS. The plasma concentration-time profiles and pharmacokientic parameters were analyzed by a non-compartmental method using the nonlinear least-squares regression program WinNonlin 5.3 (Pharsight, Mountain View, CA, USA).
The LC-MS/MS analysis was performed on an Agilent 1200 series (Agilent Technologies, Santa Clara, CA, USA) with an API 4000 linear ion trap triple quadruple mass spectrometer (AB Sciex, CA, USA). The chromatographic separation of the drug was carried out using a kinetex column (100 × 2.1 mm, 3 μm, Phenomenex, CA USA) with a SecurityGuard C18 guard column (4 mm × 2.0 mm i.d., Phenomenex). The flow rate was 300 µL/min with a mobile phase consisting of 0.1% formic acid in water (eluent A) and 0.1% formic acid in acetonitrile (eluent B) by linear gradient condition as follows: starting with 0 to 0.3 min, B: 5%; 0.3 to 2.5 min, B: 5 → 95%; 2.5 to 2.9 min, B: 95%; 2.9 to 3.0 min, B: 95 → 5%, and then re-equilibrated to initial conditions until 3 min. The total run time was 6 min and the injection volume of 5 μL.

[4] = target: T1, CYP2D6 (Homo sapiens, UniProt P10635); assay: CYP inhibition assay (P450-Glo) CYP2D6; type: in vitro ADME; details: P450-Glo CYP2D6 Screening System (CYP enzyme), read-out: CYP inhibition 2D6
T1 construct: purchased Promega Corp. V9890
Source text: Five major screening systems: P450-Glo CYP1A2 Screening System (Catalog# V9770), P450-Glo CYP2C9 Screening System (Catalog# V9790), P450-Glo CYP2C19 (Catalog# V9880), P450-Glo CYP 2D6 (Catalog# V9890), and P450-Glo CYP3A4 (Catalog# V9920) were attained from Promega Corp. (Madison, WI). α-naphthoflavone, sulfaphenazole, amitriptyline, quinidine, and ketoconazole were identified as positive control inhibitors for CYP1A2, CYP2C9, CYP2C19, CYP2D6, and CYP3A4, respectively. The CYP enzyme and substrate were combined in a potassium phosphate (KPO4) buffer and the reaction is initiated by adding an NADPH regenerating system. The volume of the mixture (12.5 μL in a 96-well plate) was combined with an equal volume of test compound solution and positive control inhibitor (12.5 μL added to make the volume 25 μL). The reaction of the NADPH regeneration system was initiated by adding a 2× concentration of NADPH solution. Then an equal volume of luciferin detection reagent was added. The plates were incubated at room temperature for 20 min and the luminescence signal was measured by a microplate reader device.

[5] = target: T2, hERG channel protein (Homo sapiens, UniProt Q12809); assay: hERG inhibition (Predictor hERG FP binding kit); details: at 10 uM
T2 construct: purchased Thermo Fisher Scientific, Inc
Experimental: The inhibition of binding affinity by small molecules was measured using the PredictorTM hERG FP kit (Thermo Fisher Scientific, Inc., Rockford, IL, USA). The procedure was carried out in accordance with the manufacturer's instructions. Briefly, tracer (PredictorTM hERG tracer red) was prepared with dilution in the binding buffer. The binding assay was conducted in 384 well black flat-bottom microplates (Corning Life Sciences, Lowell, MA, USA) after the serial addition of 5 μL of a 4 nM tracer, 5 μL of test compounds, and a 10 μL membrane fraction containing hERG channel protein. The mixtures were incubated at room temperature for 2 h. The fluorescence polarization (FP) was measured with an excitation filter of 530 nm and an emission filter of 585 nm using a microplate reader (Infinite […]; Tecan, Mannedorf, Switzerland).

[6] = system: 3T3-L1 cells; assay: In vitro efficacy test: lipogenic/adipogenic gene expression during 3T3-L1 adipocyte differentiation; type: cell-based, mouse; details: 10 μM or 50 μM, vs vehicle
Experimental: 3T3-L1 cells (American Type Culture Collection, Manassas, VA, USA) were cultured in DMEM supplemented with 10% FCS and […] P/S in a humidified chamber under 5% atmospheric CO2 at 37 °C. Two days after reaching confluence, cells were further cultured in adipocyte differentiation medium (DMEM/10% FBS, P/S, 0.5 mM IBMX, 1 μg mL^−1 insulin, and 1 μM dexamethasone) (day 0). After 2 days, the medium was changed to adipocyte maintenance medium (DMEM/10% FBS, 1 μg mL^−1 insulin, P/S) (day 2), and the media was changed every 2 days from day 4 to 8. Cells were treated with compound 6 at 10 or 50 μM concentrations throughout adipocyte differentiation (day 0 thru day 8). On day 8, differentiated 3T3-L1 […] were harvested for analysis of gene expression.
Total RNA was extracted from 3T3-L1 cells using Trizol reagent (Invitrogen, Carlsbad, CA, USA), purified using a RNeasy Lipid Tissue Mini kit (Qiagen, Hilden, Germany), and an aliquot (2 µg) of total RNA was reversed transcribed using the RevertAidTM First Strand cDNA Synthesis Kit (Thermo Fisher Scientific, Waltham, MA, USA) according to the manufacturer’s instructions. Real-time PCR was carried out using SYBR Green (Power SYBR Green PCR Master Mix, Thermo Fisher Scientific) with a ViiA™ 7 Real-Time PCR system (Applied Biosystems, Waltham, MA, USA). […]

T1 sequence (P10635 whole entry): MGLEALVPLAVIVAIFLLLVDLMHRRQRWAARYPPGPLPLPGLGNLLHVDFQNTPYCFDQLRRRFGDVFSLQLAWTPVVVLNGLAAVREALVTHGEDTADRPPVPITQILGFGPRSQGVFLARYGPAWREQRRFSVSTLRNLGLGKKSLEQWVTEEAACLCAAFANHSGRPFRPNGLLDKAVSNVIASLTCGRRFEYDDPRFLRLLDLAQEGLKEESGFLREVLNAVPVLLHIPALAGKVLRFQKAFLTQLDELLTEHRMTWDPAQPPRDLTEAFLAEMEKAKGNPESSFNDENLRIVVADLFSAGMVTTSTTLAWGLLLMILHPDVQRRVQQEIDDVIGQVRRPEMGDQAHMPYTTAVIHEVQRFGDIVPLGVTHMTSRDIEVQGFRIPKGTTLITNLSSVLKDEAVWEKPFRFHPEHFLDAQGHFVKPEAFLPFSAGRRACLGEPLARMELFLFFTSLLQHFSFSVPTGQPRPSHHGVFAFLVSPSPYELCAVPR
T2 sequence (Q12809 whole entry): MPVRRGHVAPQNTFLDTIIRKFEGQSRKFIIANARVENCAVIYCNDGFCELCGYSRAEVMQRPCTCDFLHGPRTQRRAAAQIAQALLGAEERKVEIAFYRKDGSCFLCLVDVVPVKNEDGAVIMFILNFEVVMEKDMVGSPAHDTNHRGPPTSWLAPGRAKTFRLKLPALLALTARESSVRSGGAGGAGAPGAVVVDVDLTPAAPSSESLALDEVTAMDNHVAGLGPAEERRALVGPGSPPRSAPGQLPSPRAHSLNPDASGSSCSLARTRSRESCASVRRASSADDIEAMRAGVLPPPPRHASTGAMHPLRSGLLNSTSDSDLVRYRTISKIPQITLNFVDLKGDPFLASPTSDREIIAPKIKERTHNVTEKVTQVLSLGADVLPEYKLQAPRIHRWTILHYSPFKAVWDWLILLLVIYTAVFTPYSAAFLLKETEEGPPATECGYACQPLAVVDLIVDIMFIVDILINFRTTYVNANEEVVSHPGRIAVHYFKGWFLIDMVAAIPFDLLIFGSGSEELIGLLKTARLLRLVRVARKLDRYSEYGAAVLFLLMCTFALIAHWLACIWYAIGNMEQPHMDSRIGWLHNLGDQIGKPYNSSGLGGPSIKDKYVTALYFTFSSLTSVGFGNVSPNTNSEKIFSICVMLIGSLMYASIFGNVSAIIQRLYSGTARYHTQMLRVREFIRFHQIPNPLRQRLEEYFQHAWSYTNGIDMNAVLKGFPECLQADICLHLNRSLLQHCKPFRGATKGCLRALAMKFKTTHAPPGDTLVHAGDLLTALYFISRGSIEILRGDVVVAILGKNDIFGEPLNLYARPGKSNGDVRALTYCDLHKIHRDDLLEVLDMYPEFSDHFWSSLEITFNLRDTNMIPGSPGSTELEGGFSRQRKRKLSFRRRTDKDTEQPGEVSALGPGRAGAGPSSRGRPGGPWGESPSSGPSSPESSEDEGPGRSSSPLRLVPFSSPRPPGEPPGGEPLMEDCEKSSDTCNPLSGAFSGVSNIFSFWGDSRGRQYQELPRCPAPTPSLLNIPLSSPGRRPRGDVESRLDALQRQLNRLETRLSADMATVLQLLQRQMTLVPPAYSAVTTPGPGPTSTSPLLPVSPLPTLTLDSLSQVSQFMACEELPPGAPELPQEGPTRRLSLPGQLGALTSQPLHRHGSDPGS

Liver microsomal stability, remained ([1]; after incubation for 30 min, species not given): 99% | AUC(0-inf) ([3]; male rats, iv, 5 mpk): 1220 ng·h/mL | AUC(0-t) ([3]; male rats, iv, 5 mpk): 1210 ng·h/mL | clearance ([3]; male rats, iv, 5 mpk): 68.2 mL/min/kg | half-life ([3]; male rats, iv, 5 mpk): 1.85 h | Vd ([3]; male rats, iv, 5 mpk, read-out: Vss): 2.16 L/kg | AUC ([3]; male, intravenous, rats, read-out: AUC (text, kind not stated)): 1200 ng·h/mL | inhibition at 10 µM [4]: 24.6%
SMILES: Cc1ccn(-c2cc(Cl)ccc2[C@@H](Oc2ncnc3c(-c4ccc(C[C@H](N)C(=O)O)cc4)csc23)C(F)(F)F)n1.Cl [Compound 18i, (S)-2-amino-3-(4-(4-((R)-1-(4-chloro-2-(3-methyl-1H-pyrazol-1-yl)phenyl)-2,2,2-trifluoroethoxy)thieno[3,2-d]pyrimidin-7-yl)phenyl)propanoic acid hydrochloride]
Liver microsomal stability (rat), parent remained ([1]; after 30 min incubation, 1 µM): 99% parent remained after 30 min incubation | Liver microsomal stability (human), parent remained [2]: 99% parent remained after 30 min incubation | Herg inhibition [5]: <1% inhibition at 10 uM | Expression of lipogenic genes Fasn, Srebp1c and adipogenic transcription factors Pparg, Cebpa [6]: decreased expression of key lipogenic genes
